According to PMC11912475 (Journal of Medicinal Chemistry, 2025):

Columns and labels:
[1] = biological target: GluN1-GluN2A NMDAR subtype (Homo sapiens, UniProt Q05586+Q12879); test: FLIPR/Ca2+ assay, NMDAR GluN1-GluN2A subtype in CHO cells; type: cell-based; details: CHO cells, 10 μM L-glutamate and 10 μM glycine; n.d. = 50% of inhibition could not be reached at the highest concentration used
How it was run: (§1)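 Fluo-4-loaded CHO cells (with probenecid and 500 μM ketamine during loading) stimulated with 10 μM L-glutamate plus 10 μM glycine added together with compounds, in HEPES buffer pH 7.3 with 2 mM CaCl2.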

[2] = biological target: T1, GluN1-GluN2B NMDAR subtype (Homo sapiens, UniProt Q05586+Q13224); test: FLIPR/Ca2+ assay, NMDAR GluN1-GluN2B subtype in CHO cells; type: cell-based; details: CHO cells, 10 μM L-glutamate and 10 μM glycine; n.d. = 50% of inhibition could not be reached at the highest concentration used
T1 construct: host or cells: NR1-2B-CHO cells, constitutive expression
How it was run: as §1

[3] = biological target: GluN1-GluN2C NMDAR subtype (Homo sapiens, UniProt Q05586+Q14957); test: FLIPR/Ca2+ assay, NMDAR GluN1-GluN2C subtype in CHO cells; type: cell-based; details: CHO cells, 10 μM L-glutamate and 10 μM glycine; n.d. = 50% of inhibition could not be reached at the highest concentration used
How it was run: as §1

[4] = biological target: GluN1-GluN2D NMDAR subtype (Homo sapiens, UniProt O15399+Q05586); test: FLIPR/Ca2+ assay, NMDAR GluN1-GluN2D subtype in CHO cells; type: cell-based; details: CHO cells, 10 μM L-glutamate and 10 μM glycine; n.d. = 50% of inhibition could not be reached at the highest concentration used
How it was run: as §1

[5] = test system: Glutamate, NMDA, Phencyclidine binding site; test: Radioligand displacement binding assay, [3H]TCP, NMDA; set-up: species or system Wistar rat
Histamine H1 = biological target: T2, Histamine H1 (Homo sapiens, UniProt P35367); test: Radioligand displacement binding assay, [3H]pyrilamine, H1
T2 construct: host or cells: CHO-K1

Muscarinic M5 = biological target: T3, Muscarinic M5 (Homo sapiens, UniProt P08912); test: Radioligand displacement binding assay, [3H]N-methylscopolamine, M5
T3 construct: host or cells: CHO-K1
T3 sequence (P08912 1-532): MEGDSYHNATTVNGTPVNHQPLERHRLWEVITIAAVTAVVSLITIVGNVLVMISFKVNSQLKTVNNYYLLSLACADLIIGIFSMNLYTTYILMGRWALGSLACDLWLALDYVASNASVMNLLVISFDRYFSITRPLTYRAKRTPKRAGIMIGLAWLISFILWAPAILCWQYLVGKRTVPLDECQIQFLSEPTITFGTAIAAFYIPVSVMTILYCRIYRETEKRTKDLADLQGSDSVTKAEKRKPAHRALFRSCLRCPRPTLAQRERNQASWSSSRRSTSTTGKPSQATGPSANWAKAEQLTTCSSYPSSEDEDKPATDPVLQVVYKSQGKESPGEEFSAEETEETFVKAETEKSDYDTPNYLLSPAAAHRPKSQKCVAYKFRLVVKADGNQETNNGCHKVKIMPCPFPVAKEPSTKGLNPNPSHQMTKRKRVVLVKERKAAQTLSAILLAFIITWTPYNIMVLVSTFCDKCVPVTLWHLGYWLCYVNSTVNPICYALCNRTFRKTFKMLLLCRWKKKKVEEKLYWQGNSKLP

μ opioid receptor (MOP) = biological target: T4, μ opioid receptor (MOP) (Homo sapiens, UniProt P35372); test: biochemical; type: binding; details: for inhibition at 0.3 µM / inhibition at 3 µM: read-out: % inhibition of binding, MOP
T4 construct: host or cells: CHO-K1

Serotonin 5-HT1A = biological target: T5, Serotonin 5-HT1A (Homo sapiens, UniProt P08908); test: Radioligand displacement binding assay, [3H]8-OH-DPAT, 5-HT1A
T5 construct: host or cells: CHO-K1
T5 sequence (P08908 1-422): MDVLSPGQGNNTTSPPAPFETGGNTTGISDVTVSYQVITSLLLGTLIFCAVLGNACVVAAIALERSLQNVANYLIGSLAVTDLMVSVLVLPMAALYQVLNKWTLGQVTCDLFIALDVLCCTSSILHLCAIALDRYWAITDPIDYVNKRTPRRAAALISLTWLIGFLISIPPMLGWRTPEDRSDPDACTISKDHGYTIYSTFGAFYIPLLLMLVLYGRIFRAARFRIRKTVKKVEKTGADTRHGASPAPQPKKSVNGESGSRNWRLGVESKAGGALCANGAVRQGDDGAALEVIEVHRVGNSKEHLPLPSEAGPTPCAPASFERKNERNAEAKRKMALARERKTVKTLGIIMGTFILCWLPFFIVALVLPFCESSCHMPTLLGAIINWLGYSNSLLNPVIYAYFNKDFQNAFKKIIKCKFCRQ

Serotonin 5-HT2A = biological target: T6, Serotonin 5-HT2A (Homo sapiens, UniProt P28223); test: Radioligand displacement binding assay, [3H]ketanserin, 5-HT2A
T6 construct: host or cells: CHO-K1

Serotonin 5-HT2C = biological target: T7, Serotonin 5-HT2C (Homo sapiens, UniProt P28335); test: Radioligand displacement binding assay, [3H]mesulergine, 5-HT2C
T7 construct: host or cells: CHO-K1
T7 sequence (P28335 33-458): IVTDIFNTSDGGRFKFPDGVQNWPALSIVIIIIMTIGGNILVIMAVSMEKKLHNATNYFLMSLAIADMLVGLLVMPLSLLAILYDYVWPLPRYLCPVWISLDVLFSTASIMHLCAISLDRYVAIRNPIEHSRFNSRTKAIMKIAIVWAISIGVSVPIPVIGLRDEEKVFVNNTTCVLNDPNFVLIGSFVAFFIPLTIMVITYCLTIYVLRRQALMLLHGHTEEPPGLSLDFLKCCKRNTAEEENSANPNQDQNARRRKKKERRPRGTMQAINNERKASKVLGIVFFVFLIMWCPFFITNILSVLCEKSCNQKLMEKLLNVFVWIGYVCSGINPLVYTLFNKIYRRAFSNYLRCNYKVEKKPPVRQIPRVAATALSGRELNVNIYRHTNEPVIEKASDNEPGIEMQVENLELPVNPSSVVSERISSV

Serotonin 5-HT5A = biological target: T8, Serotonin 5-HT5A (Homo sapiens, UniProt P47898); test: Radioligand displacement binding assay, [3H]LSD, 5-HT5A
T8 construct: host or cells: CHO-K1

Serotonin 5-HT7 = biological target: T9, Serotonin 5-HT7 (Homo sapiens, UniProt P34969); test: Radioligand displacement binding assay, [3H]LSD, 5-HT7
T9 construct: host or cells: CHO-K1

Sigma σ1 = biological target: T10, Sigma σ1 (Homo sapiens, UniProt Q99720); test: Radioligand displacement binding assay, [3H]pentazocine, sigma σ1
T10 construct: Sigma σ1; Source: Human Jurkat cells; host or cells: Jurkat

[6] = biological target: T11, Norepinephrine transporter NET (Homo sapiens, UniProt P23975); test: Radioligand displacement binding assay, [125I]RTI-55, NET
T11 construct: host or cells: MDCK

[7] = biological target: T12, Serotonin transporter SERT (Homo sapiens, UniProt P31645); test: Radioligand displacement binding assay, [3H]paroxetine, SERT
T12 construct: host or cells: HEK-293
T12 sequence (P31645 whole entry): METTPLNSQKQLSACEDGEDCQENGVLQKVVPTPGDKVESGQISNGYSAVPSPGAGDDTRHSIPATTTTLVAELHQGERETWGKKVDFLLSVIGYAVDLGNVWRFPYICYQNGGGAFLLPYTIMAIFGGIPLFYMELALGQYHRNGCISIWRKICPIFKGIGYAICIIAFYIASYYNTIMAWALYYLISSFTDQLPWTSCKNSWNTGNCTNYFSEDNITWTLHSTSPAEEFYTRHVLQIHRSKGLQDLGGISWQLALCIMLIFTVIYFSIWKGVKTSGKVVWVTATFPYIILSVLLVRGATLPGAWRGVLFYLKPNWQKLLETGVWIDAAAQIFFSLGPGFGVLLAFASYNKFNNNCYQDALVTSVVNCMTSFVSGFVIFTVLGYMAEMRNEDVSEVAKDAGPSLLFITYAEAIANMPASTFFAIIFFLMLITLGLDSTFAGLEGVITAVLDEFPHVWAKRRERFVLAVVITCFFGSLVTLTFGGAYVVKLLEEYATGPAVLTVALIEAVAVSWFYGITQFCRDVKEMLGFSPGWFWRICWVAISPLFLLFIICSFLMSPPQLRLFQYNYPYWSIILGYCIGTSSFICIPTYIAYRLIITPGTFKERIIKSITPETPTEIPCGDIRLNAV

T10 sequence (Q99720 whole entry): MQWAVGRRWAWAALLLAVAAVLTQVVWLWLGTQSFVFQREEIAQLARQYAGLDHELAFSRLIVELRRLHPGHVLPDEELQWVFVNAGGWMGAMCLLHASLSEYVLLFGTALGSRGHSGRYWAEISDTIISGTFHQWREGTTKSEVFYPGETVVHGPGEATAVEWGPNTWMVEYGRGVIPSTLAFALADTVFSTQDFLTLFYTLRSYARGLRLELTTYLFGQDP
T4 sequence (P35372 whole entry): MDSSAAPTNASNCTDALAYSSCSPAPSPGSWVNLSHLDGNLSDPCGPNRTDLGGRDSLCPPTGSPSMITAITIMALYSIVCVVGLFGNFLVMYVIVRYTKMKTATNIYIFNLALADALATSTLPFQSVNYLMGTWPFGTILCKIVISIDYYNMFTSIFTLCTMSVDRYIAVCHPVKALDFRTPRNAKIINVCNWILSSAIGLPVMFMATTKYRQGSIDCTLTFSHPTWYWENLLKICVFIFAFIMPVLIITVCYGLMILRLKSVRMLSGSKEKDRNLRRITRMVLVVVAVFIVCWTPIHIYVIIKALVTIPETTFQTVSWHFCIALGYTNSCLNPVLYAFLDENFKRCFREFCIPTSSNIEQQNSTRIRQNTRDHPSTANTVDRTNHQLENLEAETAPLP
T11 sequence (P23975 whole entry): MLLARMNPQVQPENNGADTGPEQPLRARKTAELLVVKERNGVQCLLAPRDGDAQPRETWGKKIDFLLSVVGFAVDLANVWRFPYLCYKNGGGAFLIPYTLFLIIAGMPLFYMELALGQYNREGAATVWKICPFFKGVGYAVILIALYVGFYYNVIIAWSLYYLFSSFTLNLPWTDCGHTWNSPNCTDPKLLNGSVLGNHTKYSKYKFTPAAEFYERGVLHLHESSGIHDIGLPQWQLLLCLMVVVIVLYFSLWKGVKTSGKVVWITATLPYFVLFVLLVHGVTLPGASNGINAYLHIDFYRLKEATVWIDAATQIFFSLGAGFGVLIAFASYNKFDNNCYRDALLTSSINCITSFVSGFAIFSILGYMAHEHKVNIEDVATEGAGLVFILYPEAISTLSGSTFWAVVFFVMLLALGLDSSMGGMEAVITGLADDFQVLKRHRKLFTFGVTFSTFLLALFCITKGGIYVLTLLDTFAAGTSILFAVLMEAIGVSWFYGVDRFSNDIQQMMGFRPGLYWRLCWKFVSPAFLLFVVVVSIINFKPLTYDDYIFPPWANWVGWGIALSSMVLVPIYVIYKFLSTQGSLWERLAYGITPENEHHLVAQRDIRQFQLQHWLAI
T6 sequence (P28223 whole entry): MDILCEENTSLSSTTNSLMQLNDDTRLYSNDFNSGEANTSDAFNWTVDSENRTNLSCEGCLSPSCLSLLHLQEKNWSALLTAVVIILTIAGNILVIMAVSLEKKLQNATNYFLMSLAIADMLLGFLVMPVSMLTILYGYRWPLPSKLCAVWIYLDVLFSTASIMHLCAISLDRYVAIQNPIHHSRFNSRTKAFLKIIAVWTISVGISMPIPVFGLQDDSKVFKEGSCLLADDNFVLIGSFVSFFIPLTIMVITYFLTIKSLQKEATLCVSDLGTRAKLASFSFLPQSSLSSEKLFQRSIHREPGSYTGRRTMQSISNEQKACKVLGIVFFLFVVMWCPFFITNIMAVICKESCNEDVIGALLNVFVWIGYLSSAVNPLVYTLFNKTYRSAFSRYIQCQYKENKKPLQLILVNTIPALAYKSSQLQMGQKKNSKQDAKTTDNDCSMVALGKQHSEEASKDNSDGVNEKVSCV
T9 sequence (P34969 whole entry): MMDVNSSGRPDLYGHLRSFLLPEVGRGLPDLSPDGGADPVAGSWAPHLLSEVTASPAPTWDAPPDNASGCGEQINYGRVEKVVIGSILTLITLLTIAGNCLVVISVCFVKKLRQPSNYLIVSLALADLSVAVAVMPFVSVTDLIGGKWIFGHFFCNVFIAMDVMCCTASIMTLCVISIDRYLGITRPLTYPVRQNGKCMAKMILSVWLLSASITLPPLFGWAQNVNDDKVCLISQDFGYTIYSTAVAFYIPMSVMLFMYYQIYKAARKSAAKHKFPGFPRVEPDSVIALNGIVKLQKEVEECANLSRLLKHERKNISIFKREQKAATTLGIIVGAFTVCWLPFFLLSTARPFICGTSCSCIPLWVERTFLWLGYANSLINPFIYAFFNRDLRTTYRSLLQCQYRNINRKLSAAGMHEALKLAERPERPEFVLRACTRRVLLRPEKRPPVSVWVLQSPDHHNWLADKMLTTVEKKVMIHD
T8 sequence (P47898 whole entry): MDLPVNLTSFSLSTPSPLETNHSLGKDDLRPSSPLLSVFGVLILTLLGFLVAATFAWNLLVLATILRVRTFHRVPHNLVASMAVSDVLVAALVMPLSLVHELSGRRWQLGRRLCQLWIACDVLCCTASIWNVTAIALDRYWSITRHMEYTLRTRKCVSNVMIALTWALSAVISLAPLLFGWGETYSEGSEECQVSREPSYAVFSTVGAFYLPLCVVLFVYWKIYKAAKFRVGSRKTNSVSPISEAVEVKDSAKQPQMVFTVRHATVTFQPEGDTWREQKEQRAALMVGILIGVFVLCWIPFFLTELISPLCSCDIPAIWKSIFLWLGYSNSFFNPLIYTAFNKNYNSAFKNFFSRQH
T2 sequence (P35367 whole entry): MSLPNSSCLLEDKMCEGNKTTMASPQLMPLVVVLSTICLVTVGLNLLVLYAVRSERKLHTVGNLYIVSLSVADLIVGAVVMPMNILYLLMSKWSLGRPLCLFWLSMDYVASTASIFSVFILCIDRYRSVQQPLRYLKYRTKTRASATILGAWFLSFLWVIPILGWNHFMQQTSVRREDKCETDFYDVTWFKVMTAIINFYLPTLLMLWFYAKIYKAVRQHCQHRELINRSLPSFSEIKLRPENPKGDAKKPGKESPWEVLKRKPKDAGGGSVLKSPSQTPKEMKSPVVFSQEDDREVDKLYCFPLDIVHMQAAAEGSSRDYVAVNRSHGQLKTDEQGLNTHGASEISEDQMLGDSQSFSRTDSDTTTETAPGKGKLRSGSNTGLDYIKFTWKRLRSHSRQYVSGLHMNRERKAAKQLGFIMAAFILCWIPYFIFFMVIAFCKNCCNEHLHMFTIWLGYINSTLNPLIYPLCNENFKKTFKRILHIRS
Chain of GluN1-GluN2C NMDAR subtype (Q14957 20-1233, other chains not shown): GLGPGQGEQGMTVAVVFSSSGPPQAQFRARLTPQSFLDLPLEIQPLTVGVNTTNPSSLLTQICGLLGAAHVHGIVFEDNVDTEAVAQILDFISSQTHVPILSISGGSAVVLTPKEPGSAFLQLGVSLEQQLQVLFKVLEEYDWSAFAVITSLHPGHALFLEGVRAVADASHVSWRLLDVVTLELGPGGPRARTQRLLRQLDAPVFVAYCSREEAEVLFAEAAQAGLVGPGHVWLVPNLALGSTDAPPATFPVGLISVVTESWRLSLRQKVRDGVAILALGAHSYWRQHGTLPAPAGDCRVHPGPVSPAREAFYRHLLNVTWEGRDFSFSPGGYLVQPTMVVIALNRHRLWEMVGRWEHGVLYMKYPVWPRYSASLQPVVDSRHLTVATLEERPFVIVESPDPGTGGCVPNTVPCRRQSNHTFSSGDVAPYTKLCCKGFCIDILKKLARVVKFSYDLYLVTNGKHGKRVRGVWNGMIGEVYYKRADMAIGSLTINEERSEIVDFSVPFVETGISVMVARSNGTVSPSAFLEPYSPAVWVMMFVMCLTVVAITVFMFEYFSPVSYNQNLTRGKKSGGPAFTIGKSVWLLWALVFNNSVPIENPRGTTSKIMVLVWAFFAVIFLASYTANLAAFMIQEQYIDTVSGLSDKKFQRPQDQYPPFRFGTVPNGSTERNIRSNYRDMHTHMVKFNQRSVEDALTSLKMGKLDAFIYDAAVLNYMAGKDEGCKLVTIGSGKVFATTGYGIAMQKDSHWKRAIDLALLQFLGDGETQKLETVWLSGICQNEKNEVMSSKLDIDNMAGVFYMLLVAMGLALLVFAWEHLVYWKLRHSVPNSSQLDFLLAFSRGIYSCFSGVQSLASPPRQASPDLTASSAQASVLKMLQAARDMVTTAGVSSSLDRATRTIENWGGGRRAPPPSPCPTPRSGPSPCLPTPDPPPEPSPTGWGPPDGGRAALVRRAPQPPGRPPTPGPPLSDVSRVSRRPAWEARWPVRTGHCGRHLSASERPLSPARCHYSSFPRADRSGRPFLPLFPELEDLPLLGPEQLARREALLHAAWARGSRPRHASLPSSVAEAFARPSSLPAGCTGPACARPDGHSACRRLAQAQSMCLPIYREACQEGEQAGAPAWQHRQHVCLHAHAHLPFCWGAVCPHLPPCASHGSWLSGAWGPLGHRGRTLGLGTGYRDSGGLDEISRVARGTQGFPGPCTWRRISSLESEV

Compound	pIC50 (mean ± SEM) GluN1-GluN2A [1]	pIC50 (mean ± SEM) GluN1-GluN2B [2]	pIC50 (mean ± SEM) GluN1-GluN2C [3]	pIC50 (mean ± SEM) GluN1-GluN2D [4]	% inhibition of binding, NMDA ([5]; 1 μM)	inhibition at 10 µM (Histamine H1)	inhibition at 30 µM (Histamine H1)	inhibition at 1 µM (Muscarinic M5)	inhibition at 10 µM (Muscarinic M5)	inhibition at 0.3 µM (μ opioid receptor (MOP))	inhibition at 3 µM (μ opioid receptor (MOP))	inhibition at 0.3 µM (Serotonin 5-HT1A)	inhibition at 3 µM (Serotonin 5-HT1A)	inhibition at 0.3 µM (Serotonin 5-HT2A)	inhibition at 3 µM (Serotonin 5-HT2A)	inhibition at 0.3 µM (Serotonin 5-HT2C)	inhibition at 3 µM (Serotonin 5-HT2C)	inhibition at 1 µM (Serotonin 5-HT5A)	inhibition at 10 µM (Serotonin 5-HT5A)	inhibition at 1 µM (Serotonin 5-HT7)	also measured
CC[C@H](O)C(C[C@H](C)N)(c1ccccc1)c1ccccc1 [(3S,6S)-DNML, (3S,6S)-6-amino-4,4-diphenylheptan-3-ol]	4.9 ± 0.081	4.4 ± 0.13	4.7 ± 0.056	4.7 ± 0.079	9%	5%	24%	1%	9%	38%	84%	24%	15%	12%	10%	1%	19%	-7%	-12%	5%	% inhibition of binding, NMDA ([5]; 10 μM): 36%; inhibition at 10 µM (Serotonin 5-HT7): 4%; inhibition at 0.3 µM (Sigma σ1): 46%; inhibition at 3 µM (Sigma σ1): 71%; inhibition at 1 µM [6]: -5%; inhibition at 10 µM [6]: 3%; inhibition at 1 µM [7]: 35%; % inhibition of binding, SERT ([7]; 10 μM): displaced; inhibition at 10 µM ([7]; 10 μM): 82%
CC[C@H](O)C(C[C@H](C)NC)(c1ccccc1)c1ccccc1 [(3S,6S)-NML, (3S,6S)-6-(methylamino)-4,4-diphenylheptan-3-ol]	4.6 ± 0.062	4.7 ± 0.080	4.7 ± 0.042	4.6 ± 0.065	9%	33%	65%	2%	15%	65%	95%	-4%	1%	-10%	-11%	5%	28%	1%	10%	12%	displacement at the histamine H1 receptor, in words (Histamine H1; concentration not given): significant displacement percentages; displacement at the MOP, in words (μ opioid receptor (MOP); concentration not given): high displacement percentages; inhibition at 10 µM (Serotonin 5-HT7): 23%; inhibition at 0.3 µM (Sigma σ1): 46%; inhibition at 3 µM (Sigma σ1): 77%; displacement at the Sigma-1 (σ1) receptor, in words (Sigma σ1; concentration not given): high displacement percentages; inhibition at 1 µM [6]: -12%; inhibition at 10 µM [6]: 12%; inhibition at 1 µM [7]: 2%; inhibition at 10 µM ([7]; 10 μM): 25%
